Source: paper PMC8071274 (International Journal of Molecular Sciences, 2021)
“Also recorded” adds a separate entry of the source. Where a SMILES comes first, the peptide text is derived from it. Where no end group is shown, it is not given here. The star is where a group is joined. For = O=C*

Key:
[1] = Time-dependent alteration of molecular forms of MCT-2(1–15) in mouse serum (RP-HPLC, MALDI-TOF-MS); assay type: in vitro ADME; conditions: 37 °C
Protocol: Male C57BL/6JJcl mice, 12–14 weeks of age, weighing 25–30 g, were anesthetized (50 mg/kg pentobarbital), and blood was collected from the caudal vena cava and stored overnight at 4 °C. The blood sample was centrifuged at 4 °C and 20,000× g for 20 min, and the supernatant was transferred to a new tube as mouse serum and stored at −80 °C. MCT-2(1–15) was incubated in mouse serum at a final concentration of 500 μM at 37 °C, and aliquots (100 μL) were collected from the incubation mixture after 0, 1, 2, 4, 24, and 48 h. These aliquots were mixed with TCA (final concentration: 3% w/v) and kept on ice for 30 min to precipitate denatured proteins. The samples were centrifuged at 4 °C and 13,000× g for 15 min, and the supernatants were analyzed by RP-HPLC on a C18 column (4.6 × 150 mm, Cosmosil; Nacalai Tesque, Inc.). RP-HPLC peaks that contained MCT-2(1–15) and its derivative peptides were analyzed by MALDI-TOF-MS to identify their molecular forms.

[2] = tested on: differentiated HL-60 cells; assay type: cell-based, human; conditions: 72 h
Protocol: HEK-293 cells (American Type Culture Collection, Manassas, VA, USA) were maintained in DMEM (Thermo Fisher Scientific, Waltham, MA, USA) containing 10% FBS (Thermo Fisher Scientific) in a humidified atmosphere at 5% CO2 and 37 °C. Human acute leukemia-derived HL-60 cells (RIKEN Cell Bank, Ibaraki, Japan) were cultured in RPMI-1640 medium (Thermo Fisher Scientific) containing 10% FBS in a humidified atmosphere at 5% CO2 and 37 °C. HL-60 cells were treated with 500 μM dibutyryl-cAMP (Sigma-Aldrich, St. Louis, MO, USA) for 72 h to differentiate the cells into neutrophilic/granulocytic cells as described elsewhere. The ability of MCT-2-related peptides to activate HL-60 cells differentiated into neutrophilic/granulocytic cells was evaluated by stimulation of β-hexosaminidase secretion from the cells. Briefly, differentiated HL-60 cells were washed 3 times with ice-cold HEPES-buffered Hank’s solution (HBHS; 10 mM HEPES, 136.9 mM NaCl, 5.4 mM KCl, 1.2 mM CaCl2, 0.44 mM KH2PO4, 0.49 mM MgCl2, 0.41 mM MgSO4, 0.34 mM Na2HPO4, 5.5 mM glucose, 4.2 mM NaHCO3, and 0.1% BSA, pH 7.4). The cells were resuspended in HBHS at a density of 5.6 × 10^6 cells/mL, and DNase I (Sigma-Aldrich) and cytochalasin B (Sigma-Aldrich) were each added at a final concentration of 5 μg/mL. The cell suspension in each tube (5.0 × 10^5 cells/90 μL) was preincubated at 37 °C for 10 min and stimulated with 10 μL synthetic peptide solution at 37 °C for 10 min. The inhibitory effects of inhibitors against FPR1 [CysH (Sigma-Aldrich)] and FPR2 [PBP10 (Tocris Bioscience, Bristol, UK)] on β-hexosaminidase release induced by MCT-2 and its derivatives were also evaluated in the differentiated HL-60 cells; each cell suspension prepared as above (90 μL) was transferred to a tube (5.0 × 10^5 cells/tube) with 5 μL inhibitor solution for FPR1 (CysH) or FPR2 (PBP10). Each tube was then preincubated at 37 °C for 10 min and stimulated with 5 μL synthetic peptide solution at 37 °C for 10 min. After stimulation, 200 μL ice-cold reaction quenching buffer (25 mM Tris, 123 mM NaCl, and 2.7 mM KCl, pH 7.4) was added to each cell suspension to stop the reaction. Thereafter, these tubes were centrifuged at 4 °C and 2300× g for 1 min, and each supernatant was transferred into a new tube. β-Hexosaminidase activity in the supernatant was measured as described previously. Briefly, 90 μL supernatant was transferred to each well of a 96-well microtiter plate, and 60 μL of a substrate solution for β-hexosaminidase [10 mM p-nitrophenyl N-acetyl-β-D-glucosaminide (Sigma-Aldrich), 40 mM citrate, and 70 mM NaHPO4, pH 4.5] was added to initiate the enzyme reaction. After incubation of the plate at 37 °C for 1 h, 100 μL of 400 mM glycine (pH 10.7) was added to stop the reaction. The absorbance at 415 nm for the resulting p-nitrophenol and at 490 nm for the reference was measured using a microtiter plate reader (Viento XS; BioTek Instruments, Winooski, VT, USA). The ability of each peptide to induce β-hexosaminidase release was expressed as a percentage of enzyme secretion promoted by 10 μM MCT-2(1–15) that induced the maximum response for the elucidation of full or partial agonists to the activity of MCT-2(1–15) (Figure 2 and Figure 4, Table 2) or a percentage of the total enzyme activity, which was the enzyme activity released after disruption of the cells with 0.05% Triton X-100 (Figure 3).

[3] = mouse serum; conditions: Male C57BL/6JJcl mice, 37 °C, up to 48 h

time of first detection of the degradation product in serum ([1]; product formed from 500 μM MCT-2(1–15) in mouse serum) [h]	presence of the degradation product in serum at 4 h ([1]; product formed from 500 μM MCT-2(1–15) in mouse serum, 4 h)	time of maximum amount of the degradation product in serum ([1]; product formed from 500 μM MCT-2(1–15) in mouse serum, RP-HPLC, MALDI-TOF-MS) [h]	EC50 [2] [nM]	metabolised at 1 h, 500 μM ([1]; male, C57BL/6JJcl, mouse serum, 500 μM peptide, 1 h, TCA precipitation, RP-HPLC (214 nm), read-out: reduction of amount of peptide in serum at 1 h) [%]	metabolised at 2 h, 500 μM ([1]; male, C57BL/6JJcl, mouse serum, 500 μM peptide, 2 h, TCA precipitation, RP-HPLC (214 nm), read-out: reduction of amount of peptide in serum at 2 h) [%]	half-life at 500 μM ([1]; male, C57BL/6JJcl, mouse serum, 500 μM peptide, RP-HPLC (214 nm)) [h]	peptide remaining in serum at 4 h ([1]; mouse serum, 500 μM peptide, 4 h, RP-HPLC (214 nm))	Molecule	fragment found [3]
1	not found	1	547 ± 93.9	–	–	–	–	CC[C@H](C)[C@H](NC(=O)[C@H](CCCCN)NC(=O)[C@H](CCCNC(=N)N)NC(=O)[C@H](CCSC)NC(=O)[C@@H]1CCCN1C(=O)[C@@H](NC(=O)[C@H](CCSC)NC=O)[C@@H](C)O)C(=O)N[C@@H](CC(N)=O)C(=O)N1CCC[C@H]1C(=O)N[C@@H](CC(C)C)C(=O)N[C@@H](CCSC)C(=O)O [MCT-2(1–11)] (For-MTPMRKINPLM-OH)	–
–	–	–	20 ± 3.39	~50	~80	~1	completely disappeared	CC[C@H](C)[C@H](NC(=O)[C@H](CC(C)C)NC(=O)[C@H](CCCCN)NC(=O)[C@H](CCSC)NC(=O)[C@H](CC(C)C)NC(=O)[C@@H]1CCCN1C(=O)[C@H](CC(N)=O)NC(=O)[C@@H](NC(=O)[C@H](CCCCN)NC(=O)[C@H](CCCNC(=N)N)NC(=O)[C@H](CCSC)NC(=O)[C@@H]1CCCN1C(=O)[C@@H](NC(=O)[C@H](CCSC)NC=O)[C@@H](C)O)[C@@H](C)CC)C(=O)N[C@@H](CC(N)=O)C(=O)O [MCT-2(1–15), Mitocryptide-2] (For-MTPMRKINPLMKLIN-OH)	–
–	–	–	–	–	–	–	–	For-MTPMRKINPLMKLIN	MCT-2(1–11), 1 h; also recorded: MCT-2(1–10), 1 h; also recorded: MCT-2(1–4), 1 h
